{
  "source": "patent US9393184B2",
  "about": "“Oxychlorine oral rinse composition having enhanced oral-tissue compatibility for the destruction of malodorants, their putrefactive microbial sources and gum-disease pathogens and a method for the preparation thereof” (ProFresh Properties Inc., priority 2013, dated 2016)",
  "origin": "cited, not measured here",
  "data": [
    {"smiles": "O=C(O)O", "note": "[carbonic acid]", "values": [
      {"measurement": "pKa", "value": 6.1}
    ]}
  ]
}
